This note sets out measurements from US20240368157A1, “FORMS AND COMPOSITIONS OF A JAK2 INHIBITOR” (Ajax Therapeutics, Inc., priority 2023, published 2024).

The target in this assay is T1, JAK2 (JH1domain-catalytic, Y1007F, Y1008F) kinase (Homo sapiens, UniProt O60674, Y1007F/Y1008F).
T1 construct: JAK2 (JH1domain-catalytic, Y1007F, Y1008F) kinase was expressed as N-terminal fusion; made in house; host or cells: transiently transfected HEK293 cells
As to the kind of experiment: JAK2 Binding Assay. How it is done:
JAK2 (JH1domain-catalytic, Y1007F, Y1008F) kinase was expressed as N-terminal fusion to the DNA binding domain of NFkB in transiently transfected HEK293 cells and subsequently tagged with DNA for qPCR detection. Streptavidin-coated magnetic beads were treated with biotinylated small molecule ligands for 30 minutes at room temperature to generate affinity resins for kinase assays. The liganded beads were blocked with excess biotin and washed with blocking buffer (SeaBlock (Pierce), 1% BSA, 0.05% Tween 20, 1 mmol/L DTT) to remove unbound ligand and to reduce nonspecific phage binding. Binding reactions were assembled by combining kinases, liganded affinity beads, and test compounds in 1× binding buffer (1×PBS, 0.05% Tween 20, 0.1% BSA, 1 mmol/L DTT). Test compound was prepared as 111× stocks in 100% DMSO and directly diluted into the assay wells. All reactions were performed in polypropylene 384-well plates in a final volume of 0.02 mL. The assay plates were incubated at room temperature with shaking for 1 hour and the affinity beads were washed with wash buffer (1×PBS, 0.05% Tween 20). The beads were then re-suspended in elution buffer (1×PBS, 0.05% Tween 20, 0.5 μmol/L non-biotinylated affinity ligand) and incubated at room temperature with shaking for 30 minutes. The kinase concentration in the eluate was measured by qPCR.

T1 sequence (O60674 849-1124 Y1007F/Y1008F limits assumed): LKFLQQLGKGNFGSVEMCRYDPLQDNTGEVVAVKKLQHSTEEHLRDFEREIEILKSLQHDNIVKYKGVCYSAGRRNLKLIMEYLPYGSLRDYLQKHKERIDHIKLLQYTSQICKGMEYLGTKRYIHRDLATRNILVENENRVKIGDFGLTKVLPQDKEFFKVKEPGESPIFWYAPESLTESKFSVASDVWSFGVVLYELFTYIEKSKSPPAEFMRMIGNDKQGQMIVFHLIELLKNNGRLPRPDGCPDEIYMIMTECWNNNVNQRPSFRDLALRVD

Usually Kd stands for a measure of binding affinity in units of concentration. `CN(C)C(=O)Nc1cc(Oc2cnc3nc(Nc4cc(C(F)(F)F)cn(C)c4=O)n(C)c3c2C#N)ccn1` [Compound 1, 3-(4-((7-cyano-1-methyl-2-((1-methyl-2-oxo-5-(trifluoromethyl)-1,2-dihydropyridin-3-yl)amino)-1H-imidazo[4,5-b]pyridin-6-yl)oxy)pyridin-2-yl)-1,1-dimethylurea] gave a Kd below 10 nM.
